# In ChEMBL document CHEMBL1201862, “PubChem BioAssay data set” (2004):
#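 Grown in 96-well plates, cells were treated for 48 hours with each compound at five concentrations. Insufficient inhibition: endpoint recorded as highest concentration tested. GI50: concentration for 50% inhibition of growth.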 Active and inactive are the calls of the source. Rule as the data show it: active = GI50 up to about 1.1 µM and inactive = higher.
# Columns and labels:
# Test in all cases: DTP human tumour cell line panel, 48 h
# SNB-75 = tested on: SNB-75
# MDA-MB-435 = tested on: MDA-MB-435
# LOX IMVI = tested on: LOX IMVI
# SK-MEL-5 = tested on: SK-MEL-5
# SNB-19 = tested on: SNB-19
# UACC-62 = tested on: UACC-62
# RXF 393 = tested on: RXF 393
# NCI-H522 = tested on: NCI-H522
# SK-MEL-2 = tested on: SK-MEL-2
# 786-0 = tested on: 786-0
# NCI-H23 = tested on: NCI-H23
# ACHN = tested on: ACHN
# UACC-257 = tested on: UACC-257
# BT-549 = tested on: BT-549
# SW-620 = tested on: SW-620
# RPMI-8226 = tested on: RPMI-8226
# IGROV-1 = tested on: IGROV-1
# SF-268 = tested on: SF-268
# HOP-92 = tested on: HOP-92
# MOLT-4 = tested on: MOLT-4
# PC-3 = tested on: PC-3
# SK-OV-3 = tested on: SK-OV-3
# CCRF-CEM = tested on: CCRF-CEM
# OVCAR-8 = tested on: OVCAR-8
# U-251 = tested on: U-251
# OVCAR-5 = tested on: OVCAR-5
# OVCAR-3 = tested on: OVCAR-3
# K562 = tested on: K562
# MDA-N = tested on: MDA-N
# HCT-116 = tested on: HCT-116
# SN12C = tested on: SN12C
# KM12 = tested on: KM12
# EKVX = tested on: EKVX
# COLO 205 = tested on: COLO 205
# NCI-H460 = tested on: NCI-H460
# HCC 2998 = tested on: HCC 2998
# SF-295 = tested on: SF-295
# NCI/ADR-RES = tested on: NCI/ADR-RES
# A549 = tested on: A549
# T47D = tested on: T47D
# HT-29 = tested on: HT-29
# NCI-H226 = tested on: NCI-H226
# HL-60 = tested on: HL-60
# MCF7 = tested on: MCF7
# TK-10 = tested on: TK-10
# CAKI-1 = tested on: CAKI-1
# DU-145 = tested on: DU-145
# SK-MEL-28 = tested on: SK-MEL-28
# A498 = tested on: A498
# M14 = tested on: M14
# MDA-MB-231 = tested on: MDA-MB-231
# HOP-62 = tested on: HOP-62
# Hs-578T = tested on: Hs-578T
# OVCAR-4 = tested on: OVCAR-4
# HCT-15 = tested on: HCT-15
# SF-539 = tested on: SF-539
# SR = tested on: SR
# UO-31 = tested on: UO-31
# Malme-3M = tested on: Malme-3M
smiles,measurement,setting,value
O=C(CSc1nc2ccc(I)cc2c(=O)n1Cc1ccccc1)NNC(=O)c1ccccc1,GI50,SNB-75,2.38 µM (inactive)
same,GI50,MDA-MB-435,35 µM (inactive)
same,GI50,LOX IMVI,22.5 µM (inactive)
same,GI50,SK-MEL-5,10.3 µM (inactive)
same,GI50,SNB-19,21.3 µM (inactive)
same,GI50,UACC-62,14.2 µM (inactive)
same,GI50,RXF 393,4.73 µM (inactive)
same,GI50,NCI-H522,6.4 µM (inactive)
same,GI50,SK-MEL-2,6.08 µM (inactive)
same,GI50,786-0,8.97 µM (inactive)
same,GI50,NCI-H23,17.6 µM (inactive)
same,GI50,ACHN,17.7 µM (inactive)
same,GI50,UACC-257,18 µM (inactive)
same,GI50,BT-549,7.31 µM (inactive)
same,GI50,SW-620,36.1 µM (inactive)
same,GI50,RPMI-8226,3.52 µM (inactive)
same,GI50,IGROV-1,9.27 µM (inactive)
same,GI50,SF-268,6.79 µM (inactive)
same,GI50,HOP-92,8.24 µM (inactive)
same,GI50,MOLT-4,11.4 µM (inactive)
same,GI50,PC-3,10.7 µM (inactive)
same,GI50,SK-OV-3,17.2 µM (inactive)
same,GI50,CCRF-CEM,49.7 µM (inactive)
same,GI50,OVCAR-8,8.3 µM (inactive)
same,GI50,U-251,28 µM (inactive)
same,GI50,OVCAR-5,16 µM (inactive)
same,GI50,OVCAR-3,19 µM (inactive)
same,GI50,K562,2.2 µM (inactive)
same,GI50,MDA-N,25.1 µM (inactive)
same,GI50,HCT-116,19.7 µM (inactive)
same,GI50,SN12C,17.1 µM (inactive)
same,GI50,KM12,17.5 µM (inactive)
same,GI50,EKVX,4.06 µM (inactive)
same,GI50,COLO 205,18.9 µM (inactive)
same,GI50,NCI-H460,17.3 µM (inactive)
same,GI50,HCC 2998,33.8 µM (inactive)
same,GI50,SF-295,11.4 µM (inactive)
same,GI50,NCI/ADR-RES,13.6 µM (inactive)
same,GI50,A549,11.9 µM (inactive)
same,GI50,T47D,10.6 µM (inactive)
same,GI50,HT-29,19.8 µM (inactive)
same,GI50,NCI-H226,3.78 µM (inactive)
same,GI50,HL-60,> 100 µM (inactive)
same,GI50,MCF7,9.82 µM (inactive)
same,GI50,TK-10,11.8 µM (inactive)
same,GI50,CAKI-1,2.89 µM (inactive)
same,GI50,DU-145,13.9 µM (inactive)
same,GI50,SK-MEL-28,15.4 µM (inactive)
same,GI50,A498,11.6 µM (inactive)
same,GI50,M14,29.3 µM (inactive)
same,GI50,MDA-MB-231,10.5 µM (inactive)
same,GI50,HOP-62,8.02 µM (inactive)
same,GI50,Hs-578T,2.85 µM (inactive)
same,GI50,OVCAR-4,8.99 µM (inactive)
same,GI50,HCT-15,16.5 µM
same,GI50,SF-539,2.92 µM (inactive)
same,GI50,SR,11.5 µM (inactive)
same,GI50,UO-31,1.15 µM (inactive)
CCOc1cc(NC(C)=O)ccc1C(=O)N/N=C/c1ccco1,GI50,SNB-75,> 100 µM (inactive)
same,GI50,MDA-MB-435,> 100 µM (inactive)
same,GI50,LOX IMVI,38.4 µM (inactive)
same,GI50,SK-MEL-5,> 100 µM (inactive)
same,GI50,UACC-62,77.3 µM (inactive)
same,GI50,RXF 393,> 100 µM (inactive)
same,GI50,NCI-H522,> 100 µM (inactive)
same,GI50,SK-MEL-2,> 100 µM (inactive)
same,GI50,786-0,> 100 µM (inactive)
same,GI50,NCI-H23,> 100 µM (inactive)
same,GI50,ACHN,35.6 µM (inactive)
same,GI50,UACC-257,> 100 µM (inactive)
same,GI50,BT-549,> 100 µM (inactive)
same,GI50,SW-620,> 100 µM (inactive)
same,GI50,RPMI-8226,78.3 µM (inactive)
same,GI50,IGROV-1,94 µM (inactive)
same,GI50,SF-268,> 100 µM (inactive)
same,GI50,HOP-92,11.8 µM (inactive)
same,GI50,MOLT-4,20.9 µM (inactive)
same,GI50,PC-3,> 100 µM (inactive)
same,GI50,SK-OV-3,> 100 µM (inactive)
same,GI50,CCRF-CEM,39.3 µM (inactive)
same,GI50,OVCAR-8,> 100 µM (inactive)
same,GI50,OVCAR-5,> 100 µM (inactive)
same,GI50,OVCAR-3,> 100 µM (inactive)
same,GI50,K562,4.05 µM (inactive)
same,GI50,MDA-N,> 100 µM (inactive)
same,GI50,HCT-116,> 100 µM (inactive)
same,GI50,SN12C,> 100 µM (inactive)
same,GI50,KM12,> 100 µM (inactive)
same,GI50,EKVX,> 100 µM (inactive)
same,GI50,COLO 205,44.6 µM (inactive)
same,GI50,NCI-H460,24.5 µM (inactive)
same,GI50,HCC 2998,> 100 µM (inactive)
same,GI50,SF-295,> 100 µM (inactive)
same,GI50,NCI/ADR-RES,> 100 µM (inactive)
same,GI50,T47D,> 100 µM (inactive)
same,GI50,Malme-3M,> 100 µM (inactive)
same,GI50,HT-29,> 100 µM (inactive)
same,GI50,NCI-H226,> 100 µM (inactive)
same,GI50,HL-60,27.9 µM (inactive)
same,GI50,MCF7,22.3 µM (inactive)
same,GI50,TK-10,> 100 µM (inactive)
same,GI50,CAKI-1,76.6 µM (inactive)
same,GI50,DU-145,> 100 µM (inactive)
same,GI50,SK-MEL-28,> 100 µM (inactive)
same,GI50,A498,62.8 µM (inactive)
same,GI50,MDA-MB-231,> 100 µM (inactive)
same,GI50,HOP-62,> 100 µM (inactive)
same,GI50,Hs-578T,> 100 µM (inactive)
same,GI50,OVCAR-4,> 100 µM (inactive)
same,GI50,HCT-15,> 100 µM
same,GI50,SF-539,89.7 µM (inactive)
same,GI50,SR,9.95 µM (inactive)
COc1cc2c(/C=C3/C(=O)N(C)c4ccccc43)c(Cl)[nH]c2cc1C,GI50,SNB-75,0.321 µM (active)
same,GI50,MDA-MB-435,0.0277 µM (active)
same,GI50,LOX IMVI,0.3 µM (active)
same,GI50,SK-MEL-5,0.185 µM (active)
same,GI50,SNB-19,0.253 µM (active)
same,GI50,UACC-62,0.179 µM (active)
same,GI50,RXF 393,0.746 µM (active)
same,GI50,NCI-H522,0.183 µM (active)
same,GI50,SK-MEL-2,0.325 µM (active)
same,GI50,786-0,0.3 µM (active)
same,GI50,NCI-H23,0.203 µM (active)
same,GI50,ACHN,0.51 µM (active)
same,GI50,UACC-257,0.169 µM (active)
same,GI50,BT-549,0.321 µM (active)
same,GI50,SW-620,0.33 µM (active)
same,GI50,RPMI-8226,0.249 µM (active)
same,GI50,IGROV-1,0.167 µM (active)
same,GI50,SF-268,0.207 µM (active)
same,GI50,HOP-92,1.81 µM (inactive)
same,GI50,MOLT-4,0.282 µM (active)
same,GI50,PC-3,0.29 µM (active)
same,GI50,SK-OV-3,0.184 µM (active)
same,GI50,CCRF-CEM,0.303 µM (active)
same,GI50,OVCAR-8,0.324 µM (active)
same,GI50,U-251,0.117 µM (active)
same,GI50,OVCAR-5,0.581 µM (active)
same,GI50,OVCAR-3,0.116 µM (active)
same,GI50,K562,0.0966 µM (active)
same,GI50,MDA-N,0.0352 µM (active)
same,GI50,HCT-116,0.233 µM (active)
same,GI50,SN12C,0.471 µM (active)
same,GI50,KM12,0.132 µM (active)
same,GI50,EKVX,0.641 µM (active)
same,GI50,COLO 205,0.216 µM (active)
same,GI50,NCI-H460,0.295 µM (active)
same,GI50,HCC 2998,0.101 µM (active)
same,GI50,SF-295,0.0964 µM (active)
same,GI50,NCI/ADR-RES,0.17 µM (active)
same,GI50,A549,0.361 µM (active)
same,GI50,T47D,1.46 µM (inactive)
same,GI50,HT-29,0.328 µM (active)
same,GI50,NCI-H226,0.449 µM (active)
same,GI50,HL-60,0.069 µM (active)
same,GI50,MCF7,0.0895 µM (active)
same,GI50,TK-10,0.284 µM (active)
same,GI50,CAKI-1,0.509 µM (active)
same,GI50,DU-145,0.246 µM (active)
same,GI50,SK-MEL-28,8.38 µM (inactive)
same,GI50,A498,3.19 µM (inactive)
same,GI50,M14,0.195 µM (active)
same,GI50,MDA-MB-231,0.36 µM (active)
same,GI50,HOP-62,0.286 µM (active)
same,GI50,Hs-578T,0.226 µM (active)
same,GI50,OVCAR-4,0.0906 µM (active)
same,GI50,HCT-15,0.13 µM
same,GI50,SF-539,0.0244 µM (active)
same,GI50,SR,0.274 µM (active)
same,GI50,UO-31,2.28 µM (inactive)
